Laboratory results: BindingDB's records for doi:10.1124/jpet.104.077339 (Section of Pharmacology, 2005)
Where “and” joins values, the source holds several entries; their conditions need not be identical. Equal entries are not always repeated.

How the values were obtained:
Nociceptin receptor [1] = target: Nociceptin receptor (Rattus norvegicus, UniProt P35370)
[2] = target: Delta-type opioid receptor (Homo sapiens, UniProt P41143)
[3] = target: Nociceptin receptor (Cavia porcellus)
Nociceptin receptor [4] = target: Nociceptin receptor (Homo sapiens, UniProt P41146)
Nociceptin receptor [5] = target: Nociceptin receptor (Mus musculus, UniProt P35377)
Mu-type opioid receptor = Mu-type opioid receptor (Homo sapiens, UniProt P35372)
[6] = target: Kappa-type opioid receptor (Homo sapiens, UniProt P41145)
Chain of Kappa-type opioid receptor (P41145 whole entry): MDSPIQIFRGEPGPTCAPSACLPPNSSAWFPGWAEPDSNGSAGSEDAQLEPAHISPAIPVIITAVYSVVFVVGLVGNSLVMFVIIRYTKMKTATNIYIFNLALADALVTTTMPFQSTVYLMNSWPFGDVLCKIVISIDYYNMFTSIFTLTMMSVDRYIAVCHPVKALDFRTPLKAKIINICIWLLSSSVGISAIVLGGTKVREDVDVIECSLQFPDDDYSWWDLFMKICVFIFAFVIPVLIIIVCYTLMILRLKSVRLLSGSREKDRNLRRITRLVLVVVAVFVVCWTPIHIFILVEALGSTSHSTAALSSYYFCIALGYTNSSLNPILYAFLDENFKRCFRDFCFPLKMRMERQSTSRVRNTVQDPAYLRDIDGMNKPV

Chain of Nociceptin receptor (Homo sapiens, UniProt P41146) (P41146 whole entry): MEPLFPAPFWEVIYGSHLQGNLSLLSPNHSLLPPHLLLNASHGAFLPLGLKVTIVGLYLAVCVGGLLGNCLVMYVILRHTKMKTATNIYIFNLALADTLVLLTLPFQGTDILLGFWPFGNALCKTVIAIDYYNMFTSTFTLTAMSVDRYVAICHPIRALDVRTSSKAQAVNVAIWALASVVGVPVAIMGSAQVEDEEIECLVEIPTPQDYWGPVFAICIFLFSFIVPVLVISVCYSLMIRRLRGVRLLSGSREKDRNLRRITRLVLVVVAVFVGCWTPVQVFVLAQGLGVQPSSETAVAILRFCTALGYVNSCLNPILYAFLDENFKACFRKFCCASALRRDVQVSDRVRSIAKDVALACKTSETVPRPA
Chain of Nociceptin receptor (Mus musculus, UniProt P35377) (P35377 whole entry): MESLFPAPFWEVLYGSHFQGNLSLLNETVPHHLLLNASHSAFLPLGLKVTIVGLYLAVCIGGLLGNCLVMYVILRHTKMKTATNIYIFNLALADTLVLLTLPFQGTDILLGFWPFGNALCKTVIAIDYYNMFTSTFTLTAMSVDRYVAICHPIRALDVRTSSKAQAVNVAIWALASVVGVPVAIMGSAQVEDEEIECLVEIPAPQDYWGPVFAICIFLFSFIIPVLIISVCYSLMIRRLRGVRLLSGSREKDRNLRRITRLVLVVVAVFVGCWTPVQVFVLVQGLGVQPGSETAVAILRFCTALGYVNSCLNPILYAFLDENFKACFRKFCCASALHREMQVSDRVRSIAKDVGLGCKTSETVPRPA
Chain of Mu-type opioid receptor (P35372 whole entry): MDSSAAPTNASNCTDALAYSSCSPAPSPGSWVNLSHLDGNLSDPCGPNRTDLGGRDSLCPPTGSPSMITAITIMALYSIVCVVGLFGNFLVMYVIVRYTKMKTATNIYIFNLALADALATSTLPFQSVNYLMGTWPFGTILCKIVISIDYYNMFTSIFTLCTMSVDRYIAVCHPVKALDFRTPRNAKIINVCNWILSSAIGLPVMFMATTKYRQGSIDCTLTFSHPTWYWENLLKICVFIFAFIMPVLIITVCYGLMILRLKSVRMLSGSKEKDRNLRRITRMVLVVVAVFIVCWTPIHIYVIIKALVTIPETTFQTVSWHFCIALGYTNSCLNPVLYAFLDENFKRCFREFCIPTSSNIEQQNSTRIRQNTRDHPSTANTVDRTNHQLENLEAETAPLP
Chain of Nociceptin receptor (Rattus norvegicus, UniProt P35370) (P35370 whole entry): as the sequence (P35377 whole entry) above, with F9Y, A335S counted along it
Chain of Delta-type opioid receptor (P41143 whole entry): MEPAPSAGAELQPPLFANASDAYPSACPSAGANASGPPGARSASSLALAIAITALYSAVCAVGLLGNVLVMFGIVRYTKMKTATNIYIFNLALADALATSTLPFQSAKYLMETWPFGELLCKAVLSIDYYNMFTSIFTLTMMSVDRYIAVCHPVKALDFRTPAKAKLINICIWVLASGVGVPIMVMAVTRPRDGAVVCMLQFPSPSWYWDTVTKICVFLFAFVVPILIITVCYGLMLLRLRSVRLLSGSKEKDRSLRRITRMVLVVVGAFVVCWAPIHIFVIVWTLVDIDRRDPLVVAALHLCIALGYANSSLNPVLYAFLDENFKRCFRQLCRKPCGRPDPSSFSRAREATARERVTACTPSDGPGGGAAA

**Q.** With `C[C@H](NC(=O)CNC(=O)[C@@H](NC(=O)[C@H](Cc1ccc(F)cc1)NC(=O)CNC(=O)CNC(=O)[C@@H](N)Cc1ccccc1)[C@@H](C)O)C(=O)N[C@@H](CCCNC(=N)N)C(=O)N[C@@H](CCCCN)C(=O)N[C@@H](CO)C(=O)N[C@@H](C)C(=O)N[C@@H](CCCNC(=N)N)C(=O)N[C@@H](CCCCN)C(=O)N[C@@H](CCCNC(=N)N)C(=O)N[C@@H](CCCCN)C(=O)N[C@@H](CC(N)=O)C(=O)N[C@@H](CCC(N)=O)C(N)=O` [OFQ/N UFP-102] as the compound, how does the Ki (Nociceptin receptor [1]) read?
**A.** Its Ki is 2.69 nM.

**Q.** And the Ki [2]?
**A.** Its Ki is 380 nM.

**Q.** What about the EC50 [3] of the same compound?
**A.** The EC50 was 0.58 nM.

**Q.** And the Ki (Nociceptin receptor [4])?
**A.** Its Ki is 0.076 nM and 0.068 nM and 0.021 nM.

**Q.** What about the Ki (Nociceptin receptor [5]) of the same compound?
**A.** Its Ki is 0.38 nM and 0.65 nM and 0.36 nM.

**Q.** What about the Ki (Mu-type opioid receptor) of the same compound?
**A.** Its Ki is 70.8 nM.

**Q.** What about the Ki [6] of the same compound?
**A.** Its Ki is 4.79 nM.
